According to patent US20260224547A1, “COMPOSITIONS COMPRISING ANATABINE AND USES THEREOF” (Philip Morris Products S.A., priority 2021, published 2026):

System: HEK-293, SH-SY5Y, primary human keratinocytes, THP-1 differentiated with PMA
Test: Transcriptomics (microarray) after anatabine treatment of 4 cell systems
Assay type: cell-based
Description: To investigate the signalling pathways triggered by anatabine, 4 cell systems (HEK-293, SH-SY5Y, primary human keratinocytes, THP-1 differentiated with PMA) were treated with 4 concentrations of anatabine (100, 200, 300, 400 μM) for 6 hours, after which transcriptomics measurements were performed.
HEK-293 is a human embryonic kidney cell line devoid of nicotinic receptors. It can be relatively easily transfected and therefore used as a tool to express various subtypes of nicotinic receptors or reporter genes such as NRF2-driven luciferase, which were also used in this study. HEK-293 were seeded in a cell culture medium consisting of EMEM, 10% FBS, 1% NEAA, 1% Sodium Pyruvate and 1% PenStrep. 60,000 cells were seeded per well of a 96-well plate.
SH-SY5Y is a human bone marrow neuroblastoma cell line that has been used by researchers to investigate the potential anti-inflammatory effect of anatabine. SH-SY5Y were seeded in a cell culture medium consisting of 50% EMEM and 50% Ham's F12 nutrient and including 10% FBS, 1% PenStrep and 1% L-glutamine. 15,000 cells were seeded per well of a 96-well plate.
Primary human keratinocytes have been included as a relevant cell system for skin. The batch of keratinocytes was selected in order to have healthy, non-smoker, 20-60 years old, Caucasian donors. The keratinocytes were seeded in a cell culture medium consisting of KGM-Gold Keratinocyte Growth Medium. 17,500 cells were seeded per well of a 96-well plate.
The human leukaemia-derived monocytic cell line THP-1, is the most widely used in vitro model for primary human macrophage investigations. THP-1 cells were seeded in a cell culture medium consisting of RPMI, 10% FBS and 1% PenStrep and in the presence of 40 ng/ml phorbol 12-myristate 13-acetate (PMA). 100,000 cells were seeded per well of a 96-well plate, having a total volume of […] per well. 48 hours later the medium was changed to the same culture medium but without PMA, and the culture was left to rest for 24 h before treatment.
All four cell systems were seeded in 96 well plates at a total volume of 190 μl per well to allow for a 20× compound stimulation with a volume of 10 μL. 24 hours after seeding—or in the case of THP-1, 24 h after changing to non-PMA medium—four cell systems were stimulated with anatabine (prepared at 20× the corresponding target concentration) to obtain a final molar concentration of 100, 200, 300, 400 μM anatabine.
In order to generate the transcriptomics data, the four cell systems were exposed to various concentrations of anatabine (100, 200, 300, 400 μM) for 6 hours. The transcriptome of the cells was analysed by a microarray-based analysis.
The cells were lysed using RLT BUFFER (Qiagen Hilden, Germany) for all cell types except the keratinocytes which were lysed with QIAZOL LYSIS REAGENT (Qiagen). RNA isolation was performed with RNEASY MICRO KIT (Qiagen). RNA quantification was assessed with a NANODROP 1000 (ThermoFisher Waltham, MA, USA) and quality of the total RNA was verified acquiring a profile with a 2100 BIOANALYZER (Agilent Technologies, Santa Clara, CA, USA), requiring an RIN number greater than 6.0. 50 ng of total RNA were processed as described in the TECAN/NUGEN OVATION RNA AMPLIFICATION SYSTEM V2 (Tecan Mannedorf, Switzerland). Human Genome U133 Plus 2.0 array were used for hybridization on a THERMOFISHER OVEN 645, washed on THERMOFISHER GENECHIP™ FLUIDICS STATIONS 450DX (protocol FS450-0004) and scanned on a THERMOFISHER GENECHIP™ SCANNER 3000 7G.
Quality control check of all chips was done with the BIOCONDUCTOR affyPLM R package version 1.64. Following quality control procedures, differential gene expression analysis was performed using the BIOCONDUCTOR LIMMA R package version 3.44.3. Pairwise comparisons at the gene level, called systems response profiles (SRP), were computed by comparing each concentration-treatment with its respective vehicle control. […]

C1=CCC(c2cccnc2)NC1 (racemic) [anatabine, 1,2,3,6-Tetrahydro-2,3′-bipyridine]
Fold Change (ATF3 gene, KEAT, anatabine 100 μM): 0.2106 | Fold Change (ATF3 gene, KEAT, anatabine 200 μM): 0.3169 | Fold Change (ATF3 gene, KEAT, anatabine 300 μM): 1.893 | Fold Change (ATF3 gene, KEAT, anatabine 400 μM): 1.185 | Fold Change (ATF3 gene, SHSY5Y, anatabine 100 μM): 0.04701 | Fold Change (ATF3 gene, SHSY5Y, anatabine 200 μM): 0.3038 | Fold Change (ATF3 gene, SHSY5Y, anatabine 300 μM): 0.6207 | Fold Change (ATF3 gene, SHSY5Y, anatabine 400 μM): 1.206 | Fold Change (ATF3 gene, THP1, anatabine 100 μM): −0.02648 | Fold Change (EEF2K gene, THP1, anatabine 300 μM): −0.3419 | Fold Change (EEF2K gene, THP1, anatabine 400 μM): −0.7245 | Fold Change (EID3 gene, HEK293, anatabine 100 μM): 0.1833 | Fold Change (EID3 gene, HEK293, anatabine 200 μM): 0.5345 | Fold Change (EID3 gene, HEK293, anatabine 300 μM): 0.9247 | Fold Change (EID3 gene, HEK293, anatabine 400 μM): 0.9528 | Fold Change (EID3 gene, KEAT, anatabine 100 μM): 1.694 | Fold Change (EID3 gene, KEAT, anatabine 200 μM): 1.995 | Fold Change (EID3 gene, KEAT, anatabine 300 μM): 3.641 | Fold Change (EID3 gene, KEAT, anatabine 400 μM): 3.12 | Fold Change (EID3 gene, SHSY5Y, anatabine 100 μM): 0.2913 | Fold Change (EID3 gene, SHSY5Y, anatabine 200 μM): 0.3156 | Fold Change (EID3 gene, SHSY5Y, anatabine 300 μM): 0.6868 | Fold Change (EID3 gene, SHSY5Y, anatabine 400 μM): 1.05 | Fold Change (EID3 gene, THP1, anatabine 100 μM): 0.1121 | Fold Change (EID3 gene, THP1, anatabine 200 μM): 0.4679 | Fold Change (EID3 gene, THP1, anatabine 300 μM): 0.5698 | Fold Change (EID3 gene, THP1, anatabine 400 μM): 1.615 | Fold Change (FAM53C gene, HEK293, anatabine 100 μM): 0.3792 | Fold Change (FAM53C gene, HEK293, anatabine 200 μM): 0.423 | Fold Change (FAM53C gene, HEK293, anatabine 300 μM): 0.6969 | Fold Change (FAM53C gene, HEK293, anatabine 400 μM): 0.7367 | Fold Change (FAM53C gene, KEAT, anatabine 100 μM): 0.1269 | Fold Change (FAM53C gene, KEAT, anatabine 200 μM): 0.2194 | Fold Change (FAM53C gene, KEAT, anatabine 300 μM): 1.067 | Fold Change (FAM53C gene, KEAT, anatabine 400 μM): 0.6853 | Fold Change (FAM53C gene, SHSY5Y, anatabine 100 μM): 0.1212 | Fold Change (FAM53C gene, SHSY5Y, anatabine 200 μM): 0.4283 | Fold Change (FAM53C gene, SHSY5Y, anatabine 300 μM): 0.5427 | Fold Change (FAM53C gene, SHSY5Y, anatabine 400 μM): 0.873 | Fold Change (FAM53C gene, THP1, anatabine 100 μM): 0.144 | Fold Change (FAM53C gene, THP1, anatabine 200 μM): 0.2515 | Fold Change (FAM53C gene, THP1, anatabine 300 μM): 0.6296 | Fold Change (FAM53C gene, THP1, anatabine 400 μM): 0.8729 | Fold Change (FBXO30 gene, HEK293, anatabine 100 μM): 0.001539 | Fold Change (FBXO30 gene, HEK293, anatabine 200 μM): 0.2872 | Fold Change (FBXO30 gene, HEK293, anatabine 300 μM): 0.3586 | Fold Change (FBXO30 gene, HEK293, anatabine 400 μM): 0.5949 | Fold Change (FBXO30 gene, KEAT, anatabine 100 μM): 0.619 | Fold Change (FBXO30 gene, KEAT, anatabine 200 μM): 0.8807 | Fold Change (FBXO30 gene, KEAT, anatabine 300 μM): 1.832 | Fold Change (FBXO30 gene, KEAT, anatabine 400 μM): 1.526 | Fold Change (FBXO30 gene, SHSY5Y, anatabine 100 μM): −0.5195 | Fold Change (FBXO30 gene, SHSY5Y, anatabine 200 μM): 0.3153 | Fold Change (FBXO30 gene, SHSY5Y, anatabine 300 μM): 0.5475 | Fold Change (FBXO30 gene, SHSY5Y, anatabine 400 μM): 0.9269 | Fold Change (FBXO30 gene, THP1, anatabine 100 μM): 0.002856 | Fold Change (FBXO30 gene, THP1, anatabine 200 μM): 0.427 | Fold Change (FBXO30 gene, THP1, anatabine 300 μM): 0.6595 | Fold Change (FBXO30 gene, THP1, anatabine 400 μM): 1.224 | Fold Change (G0S2 gene, HEK293, anatabine 100 μM): −0.159 | Fold Change (G0S2 gene, HEK293, anatabine 200 μM): −0.1114 | Fold Change (G0S2 gene, HEK293, anatabine 300 μM): −0.6854 | Fold Change (G0S2 gene, HEK293, anatabine 400 μM): −0.7292 | Fold Change (G0S2 gene, KEAT, anatabine 100 μM): −0.3516 | Fold Change (G0S2 gene, KEAT, anatabine 200 μM): −0.5508 | Fold Change (G0S2 gene, KEAT, anatabine 300 μM): −1.361 | Fold Change (G0S2 gene, KEAT, anatabine 400 μM): −1.016 | Fold Change (G0S2 gene, SHSY5Y, anatabine 100 μM): −0.0648
